This passage reports IC50 results from patent EP4711369A1, “1H-[1,2,3]TRIAZOLO[4,5-H]QUINAZOLINE COMPOUNDS AS PROTEIN KINASE INHIBITORS” (Chengdu Cynogen Bio-Pharmaceutical Technology Co., Ltd., priority 2023, dated 2024).

For one test, the target named is CDK2/cyclin E (Homo sapiens, UniProt P24941). Nature of the test: Assay of kinase activity (ADP-Glo). The format is biochemical. The following applies: kinase inhibitory activity, read-out: CDK2/E1 IC50. The method in brief:
(§1)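 Kinase preincubated 10 min with compound in 50 mM Hepes, 10 mM MgCl2, 0.01% Brij35, 2 mM DTT, then substrate/ATP added for 60 min at 25 °C. ADP formed measured by ADP-Glo luminescence; IC50 by nonlinear concentration-response fitting.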
(ADP-Glo turns the ADP formed in a reaction into a luminescent signal.)

For a further test, the target named is CDK4/cyclin D1 (Homo sapiens, UniProt P11802). Nature of the test: Assay of kinase activity (ADP-Glo). Format: biochemical. The following applies: kinase inhibitory activity. The method in brief:
as §1

The test system of test [1] is human breast cancer HCC1806 cells. The experiment in a line: Assay of cell proliferation (CellTiter-Glo). The following applies: Homo sapiens, 144 h, 6 days, read-out: HCC1806 IC50 of cell proliferation inhibitory activity. Format: cell-based. The method in brief: (§2)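 Cells seeded per line at growth-adapted densities, treated 6 days at 37 °C/5% CO2 with nine 3-fold dilutions (10 µM to 0.1 nM final, 0.5% DMSO). Viability by CellTiter-Glo luminescence; IC50 from four-parameter fit.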

For test [2], the system named is human breast cancer MCF-7 cells. Nature of the test: Assay of cell proliferation (CellTiter-Glo). The format is cell-based. The note with it: 144 h, MCF7 cells, 6 days, read-out: MCF7 IC50 of cell proliferation inhibitory activity. In short, it runs like this: as §2
(In general: In ATP-based viability assays light output follows the ATP content of the culture.)

The test system of test [3] is human colon cancer HCT-116 cells. The experiment in a line: Assay of cell proliferation (CellTiter-Glo). The format is cell-based. The following applies: 144 h, 6 days, read-out: HCT-116 IC50 of cell proliferation inhibitory activity. In short, it runs like this:
as §2

The subject of test [4] is human acute myeloid leukemia MV-4-11 cells. Nature of the test: Assay of cell proliferation (CellTiter-Glo). The format is cell-based. The following applies: MV4-11, 144 h, 6 days, read-out: MV-4-11 IC50 of cell proliferation inhibitory activity. In short, it runs like this: as §2
Test [5] relates to human gastric cancer MKN1 cells. Nature of the test: Assay of cell proliferation (CellTiter-Glo). The format is cell-based. The following applies: Homo sapiens, MKN-1, 144 h; MNK1, 6 days; read-out: MKN1 IC50 of cell proliferation inhibitory activity. The method in brief:
as §2

Test [6] deals with Human ovarian cancer OVCAR3 cells. The experiment in a line: Assay of cell proliferation (CellTiter-Glo). Format: cell-based. The following applies: Homo sapiens, OVCAR-3, 144 h, 6 days, read-out: OVCAR3 IC50 of cell proliferation inhibitory activity. In short, it runs like this: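 OVCAR3 cells, 2000/well in RPMI 1640 with 20% FBS, treated with nine 3-fold dilutions from 10 µM to 0.1 nM (0.5% DMSO) for 6 days at 37 °C. Viability by CellTiter-Glo luminescence; IC50 by four-parameter fit.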

In a further test the target is CDK6/cyclin D3 (Homo sapiens, UniProt Q00534). The experiment in a line: Assay of kinase activity (ADP-Glo). The format is biochemical. The following applies: kinase inhibitory activity. In short, it runs like this: (§3)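 ADP production quantified by luminescence after 60 min kinase reaction at 25 °C, started with substrate/ATP following 10 min enzyme-compound preincubation. Buffer: 50 mM Hepes, 10 mM MgCl2, 0.01% Brij35, 2 mM DTT. IC50 obtained by nonlinear curve fitting of inhibition data.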

Another test concerns the target CDK9/cyclin T1 (Homo sapiens, UniProt P50750). The experiment in a line: Assay of kinase activity (ADP-Glo). The following applies: kinase inhibitory activity. The format is biochemical. In short, it runs like this: as §3

CDK4/cyclin D1, sequence (P11802 whole entry, species assumed): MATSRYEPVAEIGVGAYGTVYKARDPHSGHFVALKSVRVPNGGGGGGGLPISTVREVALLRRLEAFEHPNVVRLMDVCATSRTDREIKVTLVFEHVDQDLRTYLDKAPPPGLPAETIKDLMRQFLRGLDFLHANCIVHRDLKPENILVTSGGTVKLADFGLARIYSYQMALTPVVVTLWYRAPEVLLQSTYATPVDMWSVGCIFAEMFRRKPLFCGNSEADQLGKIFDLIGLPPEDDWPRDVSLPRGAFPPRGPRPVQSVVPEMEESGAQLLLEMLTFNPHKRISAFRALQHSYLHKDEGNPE
CDK4/cyclin D1, sequence (P24385 whole entry partner, species assumed): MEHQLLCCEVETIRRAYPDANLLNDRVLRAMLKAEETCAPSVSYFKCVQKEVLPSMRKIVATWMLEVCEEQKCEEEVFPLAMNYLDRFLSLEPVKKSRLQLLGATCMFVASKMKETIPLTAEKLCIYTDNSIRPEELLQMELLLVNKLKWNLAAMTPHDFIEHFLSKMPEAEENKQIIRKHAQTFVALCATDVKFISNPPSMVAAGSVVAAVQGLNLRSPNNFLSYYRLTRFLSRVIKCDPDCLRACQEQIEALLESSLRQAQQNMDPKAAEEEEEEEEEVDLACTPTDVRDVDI
CDK9/cyclin T1, sequence (P50750 whole entry, species assumed): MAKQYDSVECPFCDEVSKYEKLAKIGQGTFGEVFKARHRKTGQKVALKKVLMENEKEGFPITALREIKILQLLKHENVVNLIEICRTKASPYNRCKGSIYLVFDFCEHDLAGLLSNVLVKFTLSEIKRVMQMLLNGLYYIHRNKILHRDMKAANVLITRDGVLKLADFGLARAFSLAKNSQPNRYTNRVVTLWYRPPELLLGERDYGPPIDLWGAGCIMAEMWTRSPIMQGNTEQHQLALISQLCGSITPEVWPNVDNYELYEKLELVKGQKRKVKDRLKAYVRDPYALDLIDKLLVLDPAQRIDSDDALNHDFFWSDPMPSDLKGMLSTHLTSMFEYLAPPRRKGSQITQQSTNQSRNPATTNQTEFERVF
CDK9/cyclin T1, sequence (O60563 whole entry partner, species assumed): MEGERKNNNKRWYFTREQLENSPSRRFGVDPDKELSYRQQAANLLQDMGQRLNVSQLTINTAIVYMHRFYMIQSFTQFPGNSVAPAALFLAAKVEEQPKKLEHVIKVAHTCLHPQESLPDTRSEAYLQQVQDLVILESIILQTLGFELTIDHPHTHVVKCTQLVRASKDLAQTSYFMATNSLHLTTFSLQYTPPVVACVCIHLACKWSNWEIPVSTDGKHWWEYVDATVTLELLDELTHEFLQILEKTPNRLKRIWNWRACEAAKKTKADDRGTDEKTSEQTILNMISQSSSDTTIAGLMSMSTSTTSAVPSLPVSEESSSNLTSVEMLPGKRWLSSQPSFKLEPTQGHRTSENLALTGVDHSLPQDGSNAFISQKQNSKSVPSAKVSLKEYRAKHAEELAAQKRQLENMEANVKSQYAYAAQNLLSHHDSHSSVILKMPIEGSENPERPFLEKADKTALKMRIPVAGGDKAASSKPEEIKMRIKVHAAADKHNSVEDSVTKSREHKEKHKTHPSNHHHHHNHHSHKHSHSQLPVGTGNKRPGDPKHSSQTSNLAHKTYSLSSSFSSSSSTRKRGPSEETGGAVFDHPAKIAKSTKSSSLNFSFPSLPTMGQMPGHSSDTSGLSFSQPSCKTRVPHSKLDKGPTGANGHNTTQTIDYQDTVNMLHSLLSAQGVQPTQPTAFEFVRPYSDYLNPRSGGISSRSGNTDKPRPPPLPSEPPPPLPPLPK
CDK6/cyclin D3, sequence (Q00534 whole entry, species assumed): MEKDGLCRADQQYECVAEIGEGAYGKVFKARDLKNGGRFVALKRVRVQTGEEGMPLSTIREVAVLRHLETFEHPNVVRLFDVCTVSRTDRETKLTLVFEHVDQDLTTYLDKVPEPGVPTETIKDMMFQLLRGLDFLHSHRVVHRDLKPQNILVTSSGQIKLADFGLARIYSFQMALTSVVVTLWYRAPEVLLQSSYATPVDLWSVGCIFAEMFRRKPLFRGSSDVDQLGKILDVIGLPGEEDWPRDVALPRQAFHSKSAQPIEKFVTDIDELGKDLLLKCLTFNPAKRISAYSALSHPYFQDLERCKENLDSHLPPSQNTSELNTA
CDK6/cyclin D3, sequence (P30281 whole entry partner, species assumed): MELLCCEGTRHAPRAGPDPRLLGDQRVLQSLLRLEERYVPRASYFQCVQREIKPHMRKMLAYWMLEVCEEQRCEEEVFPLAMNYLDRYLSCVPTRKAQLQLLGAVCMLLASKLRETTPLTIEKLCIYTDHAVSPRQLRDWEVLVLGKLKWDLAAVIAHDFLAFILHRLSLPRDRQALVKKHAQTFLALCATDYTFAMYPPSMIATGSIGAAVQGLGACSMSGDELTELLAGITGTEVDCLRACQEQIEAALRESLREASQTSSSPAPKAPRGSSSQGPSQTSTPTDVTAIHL

Regarding `CC(C)n1nnc2ccc3cnc(Nc4ccc(C(=O)N5CCC(O)CC5)cc4)nc3c21` [Example I-36, (4-Hydroxypiperidin-1-yl)(4-((1-isopropyl-1H-[1,2,3]triazolo[4,5-H]quinazolin-8-yl)amino)phenyl)metha none], the IC50 on CDK2/cyclin E was 0.8 nM; at CDK4/cyclin D1, 4 nM; in [1] it was 403 nM; in [2], 167 nM; in test [3], 80 nM; in test [4] it was 15 nM. Moreover, the IC50 amounted to 28 nM in test [5], 140 nM in test [6], 16 nM at CDK6/cyclin D3 and 11 nM on CDK9/cyclin T1.
Turning to `CC(C)n1nnc2ccc3cnc(Nc4ccc(C(=O)N5CCC(O)C5)cc4)nc3c21` (stereo not shown) [Example I-3, (3-Hydroxypyrrolidin-1-yl)(4-((1-isopropyl-1H-[1,2,3]triazolo[4,5-H]quinazolin-8-yl)amino)phenyl)methanone], the IC50 was 0.4 nM at CDK2/cyclin E; 1 nM on CDK4/cyclin D1; 302 nM in test [1]; 94 nM in test [3]; 196 nM in test [5]; 203 nM in test [6]. For the same compound, the IC50 at CDK6/cyclin D3 was 4 nM; against CDK9/cyclin T1 it was 6 nM.
As to `CC(C)n1nnc2ccc3cnc(Nc4ccc(C(=O)N5CCC(F)(F)CC5)cc4)nc3c21` [Example I-37, (4,4-Difluoropiperidin-1-yl)(4-((1-isopropyl-1H-[1,2,3]triazolo[4,5-H]quinazolin-8-yl)amino)phenyl)metha none], the IC50 at CDK2/cyclin E came to 0.8 nM; on CDK4/cyclin D1, 3 nM; in [1], 832 nM; in test [2], 239 nM; in [3], 136 nM; in test [4] it was 20 nM. Further, the IC50 worked out at 58 nM in test [5], 372 nM in [6], 11 nM at CDK6/cyclin D3 and 10 nM against CDK9/cyclin T1.
As to `CC(C)n1nnc2ccc3cnc(Nc4ccc(C(=O)N5CCOCC5)cc4)nc3c21` [Example I-35, (4-((1-Isopropyl-1H-[1,2,3]triazolo[4,5-H]quinazolin-8-yl)amino)phenyl)(morpholino)methanone], the IC50 was 0.7 nM on CDK2/cyclin E; 2 nM at CDK4/cyclin D1; 233 nM in test [1]; 162 nM in [2]; 95 nM in test [3]; 16 nM in [4]. Also, the IC50 in test [5] stood at 21 nM; in [6] it was 224 nM; against CDK6/cyclin D3, 12 nM; on CDK9/cyclin T1, 6 nM.
Consider `CC1(O)CCCC1n1c(=O)c(C(F)F)cc2cnc(NC3CCN(S(C)(=O)=O)CC3)nc21` (stereo not shown) [PF06873600 (Ebvaciclib), reference compound], for which the IC50 in [1] came to 481 nM; in [2], 24 nM; in test [3], 69 nM; in test [4], 100 nM; in test [5], 77 nM; in test [6] it was 118 nM. The same compound displayed an IC50 against CDK9/cyclin T1 of 452 nM.
As for `CC(C)n1nnc2ccc3cnc(Nc4ccc(C(=O)N5CC[C@H](N)C5)cc4)nc3c21` [Example I-4, (S)-(3-Aminopyrrolidin-1-yl)(4-((1-isopropyl-1H-[1,2,3]triazolo[4,5-H]quinazolin-8-yl)amino)phenyl)methanone], the IC50 was 0.08 nM at CDK2/cyclin E; 0.5 nM against CDK4/cyclin D1; 24 nM in test [1]; 18 nM in [2]; 25 nM in [3]; 3 nM in [4]. The IC50 turned out to be 8 nM in test [5], 12 nM in test [6], 8 nM against CDK6/cyclin D3 and 5 nM on CDK9/cyclin T1.
On to `C[C@@]1(O)CCC[C@H]1n1nnc2ccc3cnc(Nc4ccc(C(=O)N5CCS(=O)(=O)CC5)cc4)nc3c21` [Example I-68, (1,1-Dioxothiomorpholino)(4-((1-((1R,2R)-2-hydroxy-2-methylcyclopentyl)-1H-[1,2,3]triazolo[4,5-H]quinazolin-8-yl)amino)phenyl)methanone], for which the IC50 at CDK2/cyclin E came to 1 nM; against CDK4/cyclin D1 it was 2 nM; in [1] it was 121 nM; in test [4], 8 nM; in test [5], 62 nM; in test [6], 181 nM. Further, the IC50 at CDK6/cyclin D3 stood at 34 nM; against CDK9/cyclin T1, 112 nM.
`CC(C)N[C@@H]1CCN(C(=O)c2ccc(Nc3ncc4ccc5nnn(C(C)C)c5c4n3)cc2)C1` [Example I-9, (R)-(4-((1-Isopropyl-1H-[1,2,3]triazolo[4,5-H]quinazolin-8-yl)amino)phenyl)(3-(isopropylamino)pyrrolidin-1-yl)methanone]: the IC50 at CDK2/cyclin E was determined as 0.2 nM; against CDK4/cyclin D1, 1 nM; in test [1], 53 nM; in test [4], 3 nM; in [5], 11 nM; in test [6], 26 nM. Further, the IC50 against CDK6/cyclin D3 is 15 nM; on CDK9/cyclin T1, 2 nM.
On to `CC(C)n1nnc2ccc3cnc(Nc4ccc(C(=O)N5CCNCC5)c(F)c4)nc3c21` [Example I-19, (2-Fluoro-4-((1-isopropyl-1H-[1,2,3]triazolo[4,5-H]quinazolin-8-yl)amino)phenyl)(piperazin-1-yl)methanone], for which the IC50 at CDK2/cyclin E turned out to be 1 nM; against CDK4/cyclin D1 it was 2 nM; in test [1], 379 nM; in test [2], 42 nM; in test [3], 21 nM; in [4], 10 nM. Further, the IC50 in test [5] worked out at 85 nM; in test [6], 49 nM; against CDK6/cyclin D3, 12 nM; against CDK9/cyclin T1, 8 nM.
Regarding `CN[C@@H]1CCN(C(=O)c2ccc(Nc3ncc4ccc5nnn(C(C)C)c5c4n3)cc2)C1` [Example I-7, (R)-(4-((1-Isopropyl-1H-[1,2,3]triazolo[4,5-H]quinazolin-8-yl)amino)phenyl)(3-(methylamino)pyrrolidin-1-yl)methanone], the IC50 at CDK2/cyclin E was determined as 0.1 nM; on CDK4/cyclin D1, 0.8 nM; in test [1] it was 20 nM; in test [2], 8 nM; in [3], 11 nM; in test [4], 5 nM. The IC50 came out at 16 nM in [5], 14 nM in test [6], 3 nM on CDK6/cyclin D3 and 3 nM against CDK9/cyclin T1.
Take `C[C@H](CO)n1nnc2ccc3cnc(Nc4ccc(C(=O)N5CCOCC5)cc4)nc3c21` [Example I-51, (R)-(4-((1-(1-Hydroxypropan-2-yl)-1H-[1,2,3]triazolo[4,5-H]quinazolin-8-yl)amino)phenyl)(morpholino)methanone]: the IC50 was found to be 2 nM at CDK2/cyclin E; 7 nM at CDK4/cyclin D1; 441 nM in test [1]; 51 nM in test [4]; 100 nM in test [5]; 301 nM in test [6]. Moreover, the IC50 against CDK6/cyclin D3 turned out to be 149 nM; on CDK9/cyclin T1, 122 nM.
In the case of `CC(C)N[C@H]1CCN(C(=O)c2ccc(Nc3ncc4ccc5nnn([C@@H]6CCC[C@@]6(C)O)c5c4n3)cc2)C1` [Example I-63, (4-((1-((1R,2R)-2-Hydroxy-2-methylcyclopentyl)-1H-[1,2,3]triazolo[4,5-H]quinazolin-8-yl)amino)phenyl)((S)-3-(isopropylamino)pyrrolidin-1-yl)methanone], the IC50 is 0.08 nM on CDK2/cyclin E; 0.6 nM at CDK4/cyclin D1; 15 nM in test [1]; 1 nM in test [4]; 1 nM in test [5]; 6 nM in test [6]. For the same compound, the IC50 on CDK6/cyclin D3 and on CDK9/cyclin T1 was 3 nM throughout.
As to `CC(C)n1nnc2ccc3cnc(Nc4ccc(C(=O)N5CC6CCC(C5)N6)cc4)nc3c21` [Example I-25, (3,8-Diazabicyclo[3.2.1]octan-3-yl)(4-((1-isopropyl-1H-[1,2,3]triazolo[4,5-H]quinazolin-8-yl)amino)phenyl)metha none], the IC50 on CDK2/cyclin E is 0.2 nM; against CDK4/cyclin D1 it was 1 nM; in [1], 85 nM; in test [4] it was 4 nM; in [5] it was 13 nM; in [6] it was 33 nM. Further, the IC50 was found to be 29 nM at CDK6/cyclin D3 and 16 nM at CDK9/cyclin T1.
